Tests used:
[1] = biological target: T1, ACK1 (110-489) (Homo sapiens, UniProt Q07912); test: ACK1 Activity Assay (AlphaScreen, PYK2-derived peptide); assay type: biochemical; conditions: Average of ACK1(110-489), IC50, AlphaScreen (Pyk2); read-out: ACK1 (110-489) IC50
T1 construct: ACK1 110-489 (12.5 μl) were added to each well
Procedure: The extent of peptide phosphorylation was determined by using acceptor beads conjugated to phosphotyrosine antibody that recognizes the phosphorylated peptide and donor beads conjugated to streptavidin that binds to the biotin on the peptide. Excitation of the donor beads converted ambient oxygen to excited singlet oxygen which when in close proximity to acceptor beads, reacted with acceptor beads where the signal was amplified.
Test inhibitors and controls (N-(2,6-dimethylphenyl)-4-(2-ethoxyphenoxy)-2-[(4-piperazin-1-ylphenyl)amino]pyrimidine-5-carboxamide) were prepared in 10% DMSO at 10× the desired final concentration. […] After a 20-min incubation at room temperature, the kinase reaction was initiated by the addition of 10 μl of PYK2/ATP mixture. […] The plates were incubated for 60 min at room temperature. The reaction was stopped by the addition of 10 μl stop/detection mixture which contains EDTA (final concentration is 10 mM), AlphaScreen™ Streptavidin Donor beads (final concentration is 500 ng/well) and AlphaScreen™ Phospho-tyrosine (P-Tyr-100) Acceptor beads (final concentration is 500 ng/well) were diluted in assay buffer. This reagent addition step was performed in the dark because the AlphaScreen™ beads are light-sensitive. The plate was incubated for 60 min at room temperature in the dark and the plates were read on the Perkin Elmer Envision Multilabel plate reader ([…]).

T1 sequence (Q07912 110-489, species assumed): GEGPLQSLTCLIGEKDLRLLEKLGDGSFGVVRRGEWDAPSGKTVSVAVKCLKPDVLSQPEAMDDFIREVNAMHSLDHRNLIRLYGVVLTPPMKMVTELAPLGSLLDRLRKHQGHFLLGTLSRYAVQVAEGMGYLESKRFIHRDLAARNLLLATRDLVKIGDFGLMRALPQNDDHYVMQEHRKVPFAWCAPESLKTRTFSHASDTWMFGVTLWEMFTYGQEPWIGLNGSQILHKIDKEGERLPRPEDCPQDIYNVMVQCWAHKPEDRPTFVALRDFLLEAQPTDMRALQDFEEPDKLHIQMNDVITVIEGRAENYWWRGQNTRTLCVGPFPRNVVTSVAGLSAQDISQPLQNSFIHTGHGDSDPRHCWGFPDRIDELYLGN

melting point [°C] | IC50 [1] [µM] | SMILES
256 to 258 |  | CC(C)(C)OC(=O)NCc1ccc(Nc2ncnc3[nH]cc(C(=O)c4ccccc4)c23)cc1
> 300 |  | O=C(Nc1ccc(Nc2ncnc3[nH]cc(C(=O)c4ccccc4)c23)cc1)c1ccccc1
210 to 212 |  | NCc1cccc(Nc2ncnc3[nH]cc(C(=O)c4ccccc4)c23)c1
> 300 |  | COC(=O)c1cc(NC(=O)CNC(C)=O)cc(Nc2ncnc3[nH]cc(C(=O)c4ccccc4)c23)c1
> 300 |  | CC(=O)NCC(=O)Nc1cc(Cl)cc(Nc2ncnc3[nH]cc(C(=O)c4ccccc4)c23)c1
140 to 142 |  | CC(=O)Nc1cccc(Nc2ncnc3c2c(C(=O)c2ccccc2)cn3C)c1
> 300 |  | O=C(c1ccccc1)c1c[nH]c2ncnc(Nc3cccc(CCO)c3)c12
> 300 |  | CC(=O)Nc1cccc(Nc2ncnc3[nH]cc(C(=O)c4cccc(F)c4)c23)c1
> 300 |  | CC(=O)Nc1cccc(Nc2ncnc3[nH]cc(C(=O)c4ccccc4C)c23)c1
> 300 |  | Nc1cc(Cl)cc(Nc2ncnc3[nH]cc(C(=O)c4ccccc4)c23)c1
> 300 |  | CNC(=O)c1cccc(Nc2ncnc3[nH]cc(C(=O)c4cccc(F)c4)c23)c1
> 300 |  | O=C(NCCCN1CCCCC1)c1cccc(Nc2ncnc3[nH]cc(C(=O)c4ccccc4)c23)c1
 | 0.798 | O=C(Cn1ccnc1)Nc1ccc(Nc2ncnc3[nH]cc(C(=O)c4ccccc4)c23)cc1 [2-(1H-imidazol-1-yl)-N-(4-{[5-(phenylcarbonyl)-7H-pyrrolo[2,3-d]pyrimidin-4-yl]amino}phenyl)acetamide]
 | 69 | COCc1ccc(CC(=O)Nc2ccc(Nc3ncnc4[nH]cc(C(=O)c5ccccc5)c34)cc2)cc1 [2-[4-(methoxymethyl)phenyl]-N-(4-{[5-(phenylcarbonyl)-7H-pyrrolo[2,3-d]pyrimidin-4-yl]amino}phenyl)acetamide]
 | 31.4 | O=C(Nc1ccc(N2CCCCC2)cc1)c1cccc(Nc2ncnc3[nH]cc(C(=O)c4ccccc4)c23)c1 [3-[(5-benzoyl-7H-pyrrolo[2,3-d]pyrimidin-4-yl)amino]-N-(4-piperidin-1-ylphenyl)benzamide]
 | 0.776 | CC(=O)NCCC(=O)Nc1ccc(Nc2ncnc3[nH]cc(C(=O)c4ccccc4)c23)cc1 [3-acetamido-N-(4-((5-benzoyl-7H-pyrrolo[2,3-d]pyrimidin-4-yl)amino)phenyl)propanamide]
 | 28.9 | O=C(Nc1ccc(Nc2ncnc3[nH]cc(C(=O)c4ccccc4)c23)cc1)c1ccncc1Cl [3-chloro-N-(4-{[5-(phenylcarbonyl)-7H-pyrrolo[2,3-d]pyrimidin-4-yl]amino}phenyl)pyridine-4-carboxamide]
 | 2.57 | CN(C)CCCC(=O)Nc1ccc(Nc2ncnc3[nH]cc(C(=O)c4ccccc4)c23)cc1 [4-(dimethylamino)-N-(4-{[5-(phenylcarbonyl)-7H-pyrrolo[2,3-d]pyrimidin-4-yl]amino}phenyl)butanamide]
 | 10.9 | O=C(Nc1ccc(Nc2ncnc3[nH]cc(C(=O)c4ccccc4)c23)cc1)c1ccc(CN2CCOCC2)cc1 [4-(morpholin-4-ylmethyl)-N-(4-{[5-(phenylcarbonyl)-7H-pyrrolo[2,3-d]pyrimidin-4-yl]amino}phenyl)benzamide]
 | 1.02 | COCCCC(=O)Nc1ccc(Nc2ncnc3[nH]cc(C(=O)c4ccccc4)c23)cc1 [4-methoxy-N-(4-{[5-(phenylcarbonyl)-7H-pyrrolo[2,3-d]pyrimidin-4-yl]amino}phenyl)butanamide]
 | 61.5 | O=C(c1ccccc1)c1c[nH]c2ncnc(Nc3ccc4cc[nH]c4c3)c12 [(4-((1H-indol-6-yl)amino)-7H-pyrrolo[2,3-d]pyrimidin-5-yl)(phenyl)methanone]
 | 4.53 | COc1ccc(Nc2ncnc3[nH]cc(C(=O)c4ccccc4)c23)c(OC)c1 [(4-((2,4-dimethoxy-phenyl)amino)-7H-pyrrolo[2,3-d]pyrimidin-5-yl)(phenyl)methanone]

melting point [°C] | IC50 [1] [µM] | SMILES
 | 0.241 | CN(C)CC(=O)Nc1ccc(Nc2ncnc3[nH]cc(C(=O)c4ccccc4)c23)cc1 [N-(4-((5-benzoyl-7H-pyrrolo[2,3-d]pyrimidin-4-yl)amino)phenyl)-2-(dimethylamino)acetamide]
 | 0.415 | CN(C)CCC(=O)Nc1ccc(Nc2ncnc3[nH]cc(C(=O)c4ccccc4)c23)cc1 [N-(4-((5-benzoyl-7H-pyrrolo[2,3-d]pyrimidin-4-yl)amino)phenyl)-3-(dimethylamino)propanamide]
 | 1.27 | O=C(c1ccccc1)c1c[nH]c2ncnc(Nc3ccc(NC(=O)C4CCN(c5ccncc5)CC4)cc3)c12 [N-(4-{[5-(phenylcarbonyl)-7H-pyrrolo[2,3-d]pyrimidin-4-yl]amino}phenyl)-1-pyridin-4-ylpiperidine-4-carboxamide]
 | 4.39 | O=C(CCc1cccnc1)Nc1ccc(Nc2ncnc3[nH]cc(C(=O)c4ccccc4)c23)cc1 [N-(4-{[5-(phenylcarbonyl)-7H-pyrrolo[2,3-d]pyrimidin-4-yl]amino}phenyl)-3-pyridin-3-ylpropanamide]
 | 0.646 | NC(=O)CCC(=O)Nc1ccc(Nc2ncnc3[nH]cc(C(=O)c4ccccc4)c23)cc1 [N-(4-{[5-(phenylcarbonyl)-7H-pyrrolo[2,3-d]pyrimidin-4-yl]amino}phenyl)butanediamide]
 | 4.77 | CC(C)C(=O)Nc1ccc(Nc2ncnc3[nH]cc(C(=O)c4ccccc4)c23)cc1 [N-{4-[(5-benzoyl-7H-pyrrolo[2,3-d]pyrimidin-4-yl)amino]phenyl}-2-methylpropanamide]
 | 3.77 | CCCC(=O)Nc1ccc(Nc2ncnc3[nH]cc(C(=O)c4ccccc4)c23)cc1 [N-{4-[(5-benzoyl-7H-pyrrolo[2,3-d]pyrimidin-4-yl)amino]phenyl}butanamide]
 | 1.43 | CC(=O)Nc1ccc(Nc2ncnc3[nH]cc(C(=O)c4ccccc4)c23)cc1 [drawing 241, N-{4-[(5-benzoyl-7H-pyrrolo[2,3-d]pyrimidin-4-yl)amino]phenyl}acetamide]
 | 0.189 | CNC(=O)c1cccc(Nc2ncnc3[nH]cc(C(=O)c4ccccc4C)c23)c1 [drawing 242, N-methyl-3-{[5-(2-methylbenzoyl)-7H-pyrrolo[2,3-d]pyrimidin-4-yl]amino}benzamide]
 | 1.26 | CC(=O)Nc1cccc(Nc2ncnc3[nH]cc(C(=O)c4ccccc4C)c23)c1 [drawing 243, N-(3-{[5-(2-methylbenzoyl)-7H-pyrrolo[2,3-d]pyrimidin-4-yl]amino}phenyl)acetamide]
 | 0.914 | CNC(=O)c1cccc(Nc2ncnc3[nH]cc(C(=O)c4cccc(F)c4)c23)c1 [drawing 244, 3-{[5-(3-fluorobenzoyl)-7H-pyrrolo[2,3-d]pyrimidin-4-yl]amino}-N-methylbenzamide]
 | 2.29 | CC(=O)Nc1cccc(Nc2ncnc3[nH]cc(C(=O)c4cccc(F)c4)c23)c1 [drawing 245, N-(3-{[5-(3-fluorobenzoyl)-7H-pyrrolo[2,3-d]pyrimidin-4-yl]amino}phenyl)acetamide]
 | 1.47 | O=C(Cc1cncc(Br)c1)Nc1cccc(Nc2ncnc3[nH]cc(C(=O)c4ccccc4)c23)c1 [drawing 251, N-{3-[(5-benzoyl-7H-pyrrolo[2,3-d]pyrimidin-4-yl)amino]phenyl}-2-(5-bromopyridin-3-yl)acetamide]
 | 0.446 | NCc1ccc(Nc2ncnc3[nH]cc(C(=O)c4ccccc4)c23)cc1 [drawing 258, (4-{[4-(aminomethyl)phenyl]amino}-7H-pyrrolo[2,3-d]pyrimidin-5-yl)(phenyl)methanone]
 | 5.14 | O=C(c1ccccc1)c1c[nH]c2ncnc(Nc3cccc(CCO)c3)c12 [drawing 259, (4-{[3-(2-hydroxyethyl)phenyl]amino}-7H-pyrrolo[2,3-d]pyrimidin-5-yl)(phenyl)methanone]
 | 28.1 | O=C(Nc1ccccc1)Nc1cccc(Nc2ncnc3[nH]cc(C(=O)c4ccccc4)c23)c1 [drawing 260, 1-phenyl-3-(3-{[5-(phenylcarbonyl)-7H-pyrrolo[2,3-d]pyrimidin-4-yl]amino}phenyl)urea]
 | 6.65 | CC(C)(C)NC(=O)Nc1cccc(Nc2ncnc3[nH]cc(C(=O)c4ccccc4)c23)c1 [drawing 274, 1-tert-butyl-3-(3-{[5-(phenylcarbonyl)-7H-pyrrolo[2,3-d]pyrimidin-4-yl]amino}phenyl)urea]
 | 1.81 | CCNC(=O)Nc1cccc(Nc2ncnc3[nH]cc(C(=O)c4ccccc4)c23)c1 [drawing 275, 1-ethyl-3-(3-{[5-(phenylcarbonyl)-7H-pyrrolo[2,3-d]pyrimidin-4-yl]amino}phenyl)urea]
 | 0.24 | O=C(c1ccccc1)c1c[nH]c2ncnc(Nc3cccc(CO)c3)c12 [drawing 276, (4-{[3-(hydroxymethyl)phenyl]amino}-7H-pyrrolo[2,3-d]pyrimidin-5-yl)(phenyl)methanone]
 | 2 | COC(=O)c1cc(NC(=O)CNC(C)=O)cc(Nc2ncnc3[nH]cc(C(=O)c4ccccc4)c23)c1 [drawing 277, methyl 3-[(N-acetylglycyl)amino]-5-{[5-(phenylcarbonyl)-7H-pyrrolo[2,3-d]pyrimidin-4-yl]amino}benzoate]
 | 55.4 | Cc1cccc(Nc2ncnc3[nH]cc(C(=O)c4ccccc4)c23)c1 [phenyl(4-(m-tolylamino)-7H-pyrrolo[2,3-d]pyrimidin-5-yl)methanone]
